The values below come from article PMC11783601, “Analogue-Sensitive Inhibition of Histone Demethylases Uncovers Member-Specific Function in Ribosomal Protein Synthesis” (Journal of the American Chemical Society, 2025).

The structures appear in SMILES notation. “Also recorded” adds a separate entry of the source.

Series [1] has as its target T1, full-length KDM4A-F185A (asKDM4A) (Homo sapiens, UniProt O75164, F185A).
T1 construct: we generated the F185A mutation in full-length KDM4A carrying all of the functional domains; host or cells: HEK293T
The series can be described thus: H3K9me3 Western blot of nuclear extracts of transfected HEK293T cells. The class given is cell-based. Conditions: varying concentrations (25-200 µM). How it is done: HEK293T cells were transiently transfected with asKDM4A and treated with varying concentrations of 6A or 6B. […] To further confirm the activity of the enzyme–inhibitor pair, we performed tandem mass spectrometry of tryptic histones isolated from HEK293T cells expressing asKDM4A in the presence or absence of 100 μM 6A.
KDM4A mammalian expression plasmid in CMV vector was purchased from Addgene (plasmid #24180). KDM4B mammalian expression plasmid in CMV vector was purchased from Addgene (plasmid #24181). KDM4C mammalian expression plasmid in CMV vector was purchased from Addgene (plasmid #24214). KDM4D mammalian expression plasmid in pReciever vector was purchased from Genecopoia (EX-Z0917-M06.) KDME mammalian expression plasmid in pRP-EXP was designed from Vector Builder. The KDM4A-F185A, KDM4B-F186A, KDM4C -F187A, KDM4D-F189A, and KDM4E F186A mutants were generated using Quikchange Lightening Mutagenesis Kit (Agilent) according to manufacturer’s protocol and confirmed by Sanger […]
For the time dependent imaging, cells containing the transfected KDM4A mutant were identified by their HA signal. […] The mean signal was then measured for H3K9me3 or BrdU only within the cells expressing the KDM4A mutant. To compare changes in H3K9me3 or BrdU between trials, the quantification values were normalized to the mean signal at t=0. […]

For the next series, the system named is HEK293T cells. The experiment in a line: Cell permeability and hydrolysis to 6, LC-HRMS of cell extracts. The class given is in vitro ADME, human. Conditions: 200 µM, 24 hours, LC-HRMS total ion counts. The text has this:
We next examined the orthogonal pairs for their ability to modulate lysine demethylation on the chromosomal histone in cultured human cells (Figure 4A). To this end, we generated the F185A mutation in full-length KDM4A carrying all of the functional domains. Furthermore, to enhance cell permeability, we synthesized two chemoselective ester prodrugs 6A and 6B carrying either an n-octyl or a trifluoromethyl benzyl ester as the lipophilic moiety, respectively (Figures 4A, S5, and S6, Scheme S3).[46],[47] We confirmed the cell permeability of 6A and 6B and their subsequent hydrolysis to 6 by analyzing extracts of compound-treated HEK293T cells using LC-HRMS. […]
12. Examining cell permeability and toxicity of 6A and 6B
In a T-25 cell culture flask, HEK293T cells were treated with either 200 µM L-Leu octyl-ester NOG 6A, L-Leu TFMB-ester NOG 6B, or corresponding volume of DMSO. Following 24 hours of incubation at 37 °C, media was removed and 3mL of 80:20 methanol: water was added while the flasks with cells were on dry ice. The flasks were then incubated in -80 °C for 10 minutes to allow cell lysis. […] Relative de-esterification was determined by subtracting abundance of each treatment sample by the DMSO control and indicated molecular weights followed by dividing the abundance of L-Leu NOG molecular weight by the total abundance of esterified and de-esterified L-Leu 6 for each sample. […]

T1 sequence (O75164 whole entry F185A, the tested form may be a part): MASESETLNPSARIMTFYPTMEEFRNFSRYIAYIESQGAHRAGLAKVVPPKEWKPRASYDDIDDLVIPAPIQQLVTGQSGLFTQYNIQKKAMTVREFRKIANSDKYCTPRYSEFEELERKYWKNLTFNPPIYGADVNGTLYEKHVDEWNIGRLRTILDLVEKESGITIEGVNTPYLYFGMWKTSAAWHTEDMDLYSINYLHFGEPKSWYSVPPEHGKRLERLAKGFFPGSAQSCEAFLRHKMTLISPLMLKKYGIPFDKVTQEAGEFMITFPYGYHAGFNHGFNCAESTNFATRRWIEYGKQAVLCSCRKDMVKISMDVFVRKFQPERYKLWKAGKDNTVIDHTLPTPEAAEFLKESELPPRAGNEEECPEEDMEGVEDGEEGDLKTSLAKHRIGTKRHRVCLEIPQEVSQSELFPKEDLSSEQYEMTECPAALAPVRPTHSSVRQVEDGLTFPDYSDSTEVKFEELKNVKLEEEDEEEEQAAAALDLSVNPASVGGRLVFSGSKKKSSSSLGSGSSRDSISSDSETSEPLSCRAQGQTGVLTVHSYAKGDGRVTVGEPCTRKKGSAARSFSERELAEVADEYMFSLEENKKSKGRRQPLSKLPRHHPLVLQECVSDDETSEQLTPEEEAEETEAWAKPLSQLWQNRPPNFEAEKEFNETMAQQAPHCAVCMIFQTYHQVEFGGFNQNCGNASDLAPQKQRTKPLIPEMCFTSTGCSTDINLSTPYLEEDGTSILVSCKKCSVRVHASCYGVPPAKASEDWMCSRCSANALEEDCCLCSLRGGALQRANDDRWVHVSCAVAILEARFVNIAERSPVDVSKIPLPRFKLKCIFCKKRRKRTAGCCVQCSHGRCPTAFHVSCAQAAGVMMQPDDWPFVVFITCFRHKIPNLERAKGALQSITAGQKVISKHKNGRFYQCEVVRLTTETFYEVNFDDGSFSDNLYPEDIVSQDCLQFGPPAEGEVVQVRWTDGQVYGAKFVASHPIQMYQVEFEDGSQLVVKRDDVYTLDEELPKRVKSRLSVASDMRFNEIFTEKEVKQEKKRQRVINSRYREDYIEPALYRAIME

As for `CCCCCCCCOC(=O)C(=O)NC(CC(C)C)C(=O)O` [6A, L-Leu octyl-ester NOG], the “inhibition of asKDM4A (F185A) H3K9me3 demethylation” value in series [1] is on record as “Dose-dependent inhibition; also recorded: inhibited by both prodrugs in a dose-dependent manner”. In addition, in the series on HEK293T cells, the “membrane permeability and hydrolysis to 6” value was “comparable membrane permeability”.

In the case of `CC(C)CC(NC(=O)C(=O)OCc1cccc(C(F)(F)F)c1)C(=O)O` [6B, L-Leu TFMB-ester NOG], the “inhibition of asKDM4A (F185A) H3K9me3 demethylation” value in series [1] was “Dose-dependent inhibition; also recorded: inhibited by both prodrugs in a dose-dependent manner”. Besides, the “membrane permeability and hydrolysis to 6” value in the series with HEK293T cells is recorded as “comparable membrane permeability”.
